Reference: US20140328852A1, “IMMUNOGENIC GLUTEN PEPTIDES AND USES THEREOF” (UNIVERSIDAD DE VALLADOLID, priority 2011, published 2014)

Legend:
Type in all cases: cell-based, human
[1] = tested on: dendritic cells derived from monocytes; experiment: Phenotypic maturation of monocyte-derived dendritic cells (flow cytometry of membrane markers); conditions: dendritic cells from healthy controls, peptide 100 μg/mL, 48 hours
Experimental: FIG. 2. […] Shadowed histograms represent the expression of the co-stimulator markers (CD40, CD80, CD86) or activators (CD83) in dendritic cells. Empty histograms represent isotype controls. This experiment is representative of three independent experiments; each of them is performed by triplicate.
(§1) Mononuclear cells from ABO-compatible peripheral blood were isolated by centrifugation on a density gradient, and magnetic beads with anti-CD14 antibodies to separate CD14+ monocytes, that were induced for 6 days to differentiate into immature dendritic cells by IL-4 and GM-CSF (confirmed by flow cytometry) were isolated too. These cells were first stimulated for 48 hours with the 8-mer peptide (100 μg/mL, 10 μg/mL, 1 μg/mL) and other known gliadin peptides: 19-mer (100 μg/mL) and 33-mer (100 μg/mL) and then a co-culture with autologous T lymphocytes was performed (population CD14-obtained above), in which dendritic cells act as antigen presenting cells. As negative and positive controls of stimulation, a CD14-cell culture without dendritic cells (basal), and CD14-cells stimulated with lipopolysaccharide (LPS) were used respectively. After 4 days, the cell proliferation rate was calculated according to the absorbance ratio of stimulated/unstimulated dendritic cells in co-culture with autologous T lymphocytes.

[2] = tested on: dendritic cells derived from monocytes; experiment: Cytokine mRNA expression in stimulated monocyte-derived dendritic cells; conditions: dendritic cells from healthy donors, peptide 100 μg/ml, 48 hours
[3] = tested on: autologous T lymphocytes; experiment: Proliferation of autologous T lymphocytes in co-culture with peptide-stimulated dendritic cells; conditions: for proliferative response of autologous T lymphocytes (in words): celiac HLA-DQ2+ and non-celiac HLA-DQ2− samples; for proliferation rate: 4 days co-culture
Experimental: FIG. 4. […] The mean and standard deviation of an experiment performed in triplicate are shown, and which is representative of three independent experiments with similar results. Each experiment was performed with an untreated celiac patient with genotype HLA-DQ2^+ and parallel to a healthy non-celiac individual HLA-DQ2^− as a control (C).
Monocyte-derived dendritic cells serve as antigen presenting cells. Stimulation experiments carried out in the present invention included a positive proliferation control (T lymphocytes cultured in the presence of monocyte-derived dendritic cells pre-activated in the presence of lipopolysaccharide, LPS) and two negative controls: CD14-fraction enriched with cultured T lymphocytes i) in basal medium and ii) in the presence of monocyte-derived dendritic cells unstimulated.
as §1

[4] = peptide 100 μg/ml, cells from celiac patients HLA-DQ2+, ratio stimulated/unstimulated dendritic cells
[5] = peptide 100 μg/ml, cells from non-celiac individuals HLA-DQ2−, ratio stimulated/unstimulated dendritic cells

Substance | membrane expression of CD40 and CD80 markers [1] | membrane expression of CD83 or CD86 [1] | expression of IL-4 mRNA [2] | expression of IL-12p40 mRNA [2] | proliferative response of autologous T lymphocytes (in words) [3] | proliferation rate [3, 4] | proliferation rate [3, 5] | proliferation rate ([3]; peptide 1 μg/ml, cells from celiac patients HLA-DQ2+) | proliferation rate ([3]; peptide 1 μg/ml, cells from non-celiac individuals HLA-DQ2−) | proliferation rate ([3]; peptide 10 μg/ml, cells from celiac patients HLA-DQ2+) | proliferation rate ([3]; peptide 10 μg/ml, cells from non-celiac individuals HLA-DQ2−)
19-mer: known gliadin peptide 19-mer (SEQ ID NO: 4) (LGQQQPFPPQQPYPQPQPF; listed as Triticum monococcum) | did not affect | did not affect | 7.7 times | 0.4 times | did not induce proliferation | 1.06±0.011 | 1.03±0.039 |  |  |  | 
8-mer: eight amino acid gliadin peptide (SEQ ID NO: 2) generated in the gut of celiac patients by bacterial proteases (FPLQPQQP; listed as Triticum aestivum) | increased | not | 79 times | 0.4 times | induced a proliferative response | 2.09±0.029 | 1.51±0.108 | 1.27±0.005 | 1.04±0.039 | 1.69±0.005 | 1.28±0.034
33-mer: known immunodominant α-gliadin peptide 33-mer (SEQ ID NO: 5) (LQLQPFPQPELPYPQPELPYPQPELPYPQPQPF; Gluten peptide 33-mer) | did not affect | did not affect | 0.001 times | inhibited | did not induce proliferation | 1.04±0.005 | 1.04±0.018 |  |  |  | 
